How the values were obtained:
full-length AAK1 = full-length AAK1 (Homo sapiens, UniProt Q2M2I8); experiment: NanoBRET target engagement assay, intact and permeabilized cells
Experimental: (§1) Compounds were pipetted at various concentrations using an Echo acoustic dispenser (Labcyte), immediately followed by Tracer K10 (Promega, Tracer DB ID: T000008) for AAK1 and Aurora A and VHL Tracer (Promega, Tracer DB ID: T000019) for VHL, at an optimum KD concentration chosen from TracerDB ( tracerdb.org), respectively.
(§2) To measure the BRET signal, the NanoBRET® NanoGlo Substrate (Promega:
(§3) N1573) was added as per the manufacturer’s protocol, and filtered luminescence was measured on a PHERAstar plate reader (BMG Labtech) equipped with a luminescence filter pair (450 nm BP filter (donor) and 610 nm LP filter (acceptor)). For NanoBRET® measurement in permeabilized cells, 25 nL of digitonin (0.05 μg/μL) was pipetted into each well using an
(§4) After incubation, the BRET signals were measured by a PHERAstar plate reader (BMG Labtech) following the same procedure as intact NanoBRET® measurement. Competitive displacement data were then normalized to controls and were plotted using GraphPad Prism 9 software employing a normalized 3-parameter curve fit with the following equation:

Jurkat cells = experiment: CellTiterGlo cell viability assay; type: cell-based, human; details: 24 h; for IC50: Homo sapiens, read-out: IC50±sd/μM (cell viability)
Procedure, shortened: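 Jurkat cells treated with compound titrations; viability read by CellTiter-Glo 2.0 luminescence after 10 min at room temperature, fitted to a four-parameter curve. Proteomics samples lysed in 2% SDS, 50 mM Tris pH 8.5, TCEP and CAA, sonicated, then analysed by label-free quantitation.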

AURKA = target: T1, AURKA (Homo sapiens, UniProt O14965); experiment: NanoBRET target engagement assay, intact and permeabilized cells; details: mean of duplicates, ^a values estimated by extrapolation
T1 sequence (O14965 1-403): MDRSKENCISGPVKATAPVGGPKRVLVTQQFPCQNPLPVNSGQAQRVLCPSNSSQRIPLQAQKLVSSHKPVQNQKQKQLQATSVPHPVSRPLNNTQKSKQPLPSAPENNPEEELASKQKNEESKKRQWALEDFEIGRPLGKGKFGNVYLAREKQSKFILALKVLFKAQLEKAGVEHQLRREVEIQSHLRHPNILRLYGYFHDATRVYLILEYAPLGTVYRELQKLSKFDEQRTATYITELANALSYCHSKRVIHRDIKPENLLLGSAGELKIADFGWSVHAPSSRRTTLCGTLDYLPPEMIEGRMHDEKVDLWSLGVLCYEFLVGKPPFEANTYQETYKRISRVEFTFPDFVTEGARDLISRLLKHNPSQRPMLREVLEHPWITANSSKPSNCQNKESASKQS
Experimental: as §1, §2, §3, §4

VHL = VHL (Homo sapiens, UniProt P40337); experiment: cell-based; design: full-length, NanoLuc fusion (Promega N2741); species or system HEK293T; NanoBRET VHL tracer displacement in permeabilized cells, NanoLuc-VHL fusion; details: permeabilized cells; read-out: VHL permeabilized (IC50±sd)/µM
[1] = tested on: kinase protein levels in Jurkat cells; experiment: TMT-labeled quantitative proteomics; type: cell-based, human; details: for log2FC (compound/DMSO): Jurkat
Experimental: cultured in RPMI (Thermo: 11875093) supplemented as mentioned above. Cells were seeded in 6 well plates (Greiner: 657160) at a cell density of 1·10 6 cells/well and left at 37 °C and 5% […]
50 µl of SDS Lysis Buffer (2% SDS, 50 mM TRIS pH 8.5, 10 mM TCEP, 40 mM CAA) was added to each sample. Cells were transferred into low binding reaction tubes (Eppendorf:
0030108116) and samples were boiled for 15 minutes at 95 °C and sonicated for 2 minutes.
Methanol/Chloroform Precipitation. 200 µl of methanol and 50 µl of chloroform were added to each sample reaction tube and mixed via vortex. 150 µl of milliQ-H2O were added and samples were vortexed further. Samples were centrifuged for 5 minutes at 15000 g and the aqueous layer above the interphase was removed. 150 µl of methanol was added, samples were vortexed and centrifuged for 10 minutes at 15000 g to precipitate the pellet. The aforementioned wash procedure was repeated twice before transferring the pellet to a new low bind reaction tube in which it was allowed to dry for 5 minutes.
Dissolving the Protein Pellet and Protein Quantification. 50 µl of digestion buffer (8 M Urea, 50 mM TRIS pH 8) was added to each sample before vortexing and shaking at 750 rpm at room temperature for 10 minutes to solubilize the pellet. Protein quantification via PierceTM BCA Protein Assay Kit (Thermo: 23225) was carried out according to manufacturer’s protocol.
Protein Digestion. Samples were diluted 1:2 with 50 mM TRIS pH 8.5 to reach a final concentration of 4 M Urea. Lys-C (Promega: VA1170) was added at a 1:100 enzyme/substrate ratio. Samples were agitated at 550 rpm and 37 °C for 3 h. Samples were further diluted with 50 mM TRIS pH 8.5 to a final concentration of 1 M Urea and Trypsin (Promega: V5280) was added at a 1:100 enzyme/substrate ratio. Samples were agitated overnight at 550 rpm and 37 °C. The digestion was stopped the following day via addition of TFA to a final concentration […]
Solid Phase Extraction via C18 Cartridges. Sep-Pak C18 Cartridges (Waters: WAT054955) were used for solid phase extraction of digested peptides. For preconditioning of C18 cartridges, 1 mL of methanol was added to each column followed by 1 mL of solution B (0.1% formic acid, 80% acetonitrile) and 1 mL of solution A (0.1% formic acid, ddH2O) twice. Samples […]
were loaded to their respective columns and once samples had passed, columns were washed twice with solution A to remove unwanted components from the loading step. Elution of samples was carried out via introduction of 40% and 60% acetonitrile steps. Samples were dried and snap frozen in liquid nitrogen.
TMT-Labeling. Desalted peptides were dried and resuspended in TMT-labeling buffer (200 mM EPPS pH 8.2, 20% acetonitrile). 10 μg of peptides per condition were subjected to TMT labeling with 1:2.5 peptide TMT ratio (w/w) for 1 h at room temperature. The labeling reaction was quenched by addition of hydroxylamine to a final concentration of 0.5% and incubation at room temperature for 15 minutes. Successful TMT labeling was verified by mixing equimolar ratios of peptides and subjecting the mix to single shot LC-MS/MS analysis. For high pH reversed phase fractionation on a Dionex analytical HPLC, 50 µg of pooled and purified TMT labelled samples were resuspended in 10 mM ammonium-bicarbonate (ABC), 5% acetonitrile, […]
particle size; Phenomenex) using a multistep gradient from 100% solvent A (5% acetonitrile, 10 mM ABC in water) to 60% solvent B (90% acetonitrile, 10 mM ABC in water) over 70 minutes. Eluting peptides were collected every 45 seconds into a total of 96 fractions, which were cross-concatenated into 24 fractions and dried in a vacuum concentrator and resuspended in 3% acetonitrile with 0.1% TFA for LC-MS analysis.
Mass spectrometry data acquisition. Tryptic peptides were analyzed on an Orbitrap Lumos coupled to an easy nLC 1200 (ThermoFisher Scientific) using a 35 cm long, 75 µm ID fused-

[2] = AAK1 intact (IC50±sd)/μM, NanoBRET, intact cells, mean of duplicates, ^a values estimated by extrapolation
[3] = AAK1 permeabilized (IC50±sd)/μM, NanoBRET, permeabilized cells, mean of duplicates
[4] = mean of triplicates, ^b/^c values estimated
[5] = AURKA intact (IC50±sd)/μM, intact cells
[6] = AURKA permeabilized (IC50±sd)/μM, permeabilized cells
[7] = protein TRBV12-3;TRBV12-4, 1 µM, set1.2
[8] = protein UQCRHL;UQCRH, 1µM, set6
[9] = protein hCG_2014768;TMA7, 1µM, set6

VHL, sequence (P40337 whole entry, the tested form may be a part): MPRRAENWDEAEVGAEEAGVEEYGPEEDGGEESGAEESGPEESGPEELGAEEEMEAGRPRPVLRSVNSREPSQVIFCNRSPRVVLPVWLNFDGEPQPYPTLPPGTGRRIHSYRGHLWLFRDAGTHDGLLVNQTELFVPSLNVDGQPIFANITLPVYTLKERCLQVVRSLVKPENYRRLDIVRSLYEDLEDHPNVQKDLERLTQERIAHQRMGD
full-length AAK1, sequence (Q2M2I8 whole entry): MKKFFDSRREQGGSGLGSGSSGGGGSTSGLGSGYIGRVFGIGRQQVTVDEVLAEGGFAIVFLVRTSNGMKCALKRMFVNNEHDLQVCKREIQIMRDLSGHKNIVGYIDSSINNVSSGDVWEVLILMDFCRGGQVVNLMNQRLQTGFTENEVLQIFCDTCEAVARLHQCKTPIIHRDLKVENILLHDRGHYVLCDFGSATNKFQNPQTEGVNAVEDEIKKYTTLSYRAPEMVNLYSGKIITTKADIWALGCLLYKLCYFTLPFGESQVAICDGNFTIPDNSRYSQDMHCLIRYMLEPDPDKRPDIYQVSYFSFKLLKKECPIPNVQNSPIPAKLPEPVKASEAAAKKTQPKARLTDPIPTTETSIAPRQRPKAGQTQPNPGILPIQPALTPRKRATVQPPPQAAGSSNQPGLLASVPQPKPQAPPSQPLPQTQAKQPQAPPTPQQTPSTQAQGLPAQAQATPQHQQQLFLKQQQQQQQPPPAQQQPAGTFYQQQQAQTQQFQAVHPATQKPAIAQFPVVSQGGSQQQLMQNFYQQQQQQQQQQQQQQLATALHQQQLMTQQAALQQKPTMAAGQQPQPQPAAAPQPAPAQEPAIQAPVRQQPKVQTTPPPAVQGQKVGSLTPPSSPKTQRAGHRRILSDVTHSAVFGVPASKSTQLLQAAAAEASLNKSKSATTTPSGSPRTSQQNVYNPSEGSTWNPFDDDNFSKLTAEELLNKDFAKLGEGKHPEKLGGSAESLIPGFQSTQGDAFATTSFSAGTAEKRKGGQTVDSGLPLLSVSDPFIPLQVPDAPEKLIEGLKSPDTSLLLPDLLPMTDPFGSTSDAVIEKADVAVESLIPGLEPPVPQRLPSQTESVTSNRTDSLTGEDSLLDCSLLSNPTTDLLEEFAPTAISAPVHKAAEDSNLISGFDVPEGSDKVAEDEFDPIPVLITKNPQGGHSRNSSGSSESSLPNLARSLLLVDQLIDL

Compound	IC50 (full-length AAK1; [2]) [µM]	IC50 (full-length AAK1; [3]) [µM]	IC50 (Jurkat cells; [4]) [µM]	IC50 (AURKA; [5]) [µM]	IC50 (AURKA; [6]) [µM]	IC50 (VHL) [µM]	kinase degradation ([1]; Jurkat cells, 1 μM, 6 h)	log2FC (compound/DMSO) ([1]; protein NUDT4, 1µM, set6)	log2FC (compound/DMSO) ([1]; protein TRAV8-2, 1µM, set6)	log2FC (compound/DMSO) [1, 8]	log2FC (compound/DMSO) [1, 9]	other results
CCOC(=O)c1cc(Nc2cc(C3CC3)[nH]n2)nc(Nc2ccc(CC#N)cc2)n1 [compound 5]	0.012 ± 0.002	0.015 ± 0.002	3.1 ± 1	0.577 ± 0.391	0.507 ± 0.079	–	–	–	–	–	–	IC50±sd/μM (cell viability) (Jurkat cells; [4]): single-digit micromolar
CC(=O)N[C@H](C(=O)N1C[C@H](O)C[C@H]1C(=O)NCc1ccc(-c2scnc2C)cc1OCCOCCOCCOCCNC(=O)c1cc(Nc2cc(C3CC3)[nH]n2)nc(Nc2ccc(CC#N)cc2)n1)C(C)(C)C [5-b]	0.299 ± 0.038	0.192 ± 0.005	~18.7	~18.5	~7.78	0.972 ± 0.094	–	–	–	–	–	–
Cc1ncsc1-c1ccc(CNC(=O)[C@@H]2C[C@@H](O)CN2C(=O)[C@@H](NC(=O)CCOCCOCCOCCN2CCN(c3cc(Nc4cc(C5CC5)[nH]n4)nc(Nc4ccc(CC#N)cc4)n3)CC2)C(C)(C)C)cc1 [4-a]	0.21 ± 0.044	0.057 ± 0.004	–	3.68 ± 0.085	1.34 ± 0.271	1.13 ± 0.132	more kinases were degraded	–	–	–	–	AURKA degradation in proteomic experiments ([1]; Jurkat cells, 1 μM, 6 h, cutoff log2(fold change) ≥ 0.60): degradation levels close to the set cutoff; log2FC (compound/DMSO) ([1]; protein NUDT4, 1 µM, set1.2): -0.1286; log2FC (compound/DMSO) ([1]; protein PIGBOS1, 1 µM, set1.2): -0.1403; log2FC (compound/DMSO) ([1]; protein TRAV8-2, 1 µM, set1.2): 0.1127; log2FC (compound/DMSO) [1, 7]: 0.03022
Cc1ncsc1-c1ccc(CNC(=O)[C@@H]2C[C@@H](O)CN2C(=O)[C@@H](NC(=O)CCCCCCN2CCN(c3ccc(Nc4ncc(Cl)c(Nc5ccccc5C(N)=O)n4)cc3)CC2)C(C)(C)C)cc1 [6-d]	0.1 ± 0.008	0.053 ± 0.003	~0.1	0.372 ± 0.014	0.249 ± 0.011	5.83 ± 1.43	–	0.05822	-0.03607	-0.2976	-0.5377	effect on cell viability (cytotoxicity) (Jurkat cells): particularly pronounced effects on cell viability
CC(C)(C)OC(=O)NCCOCCOCCOCCOCCC(=O)N1CCN(c2cc(Nc3cc(C4CC4)[nH]n3)nc(Nc3ccc(CC#N)cc3)n2)CC1 [4-L]	0.099 ± 0.011	0.023 ± 0.004	–	1.92 ± 0.07	0.63 ± 0.021	–	–	–	–	–	–	–
Cc1ncsc1-c1ccc(CNC(=O)[C@@H]2C[C@H](O)CN2C(=O)[C@@H](NC(=O)CCOCCOCCOCCOCCN2CCN(c3ccc(Nc4ncc(Cl)c(Nc5ccccc5C(N)=O)n4)cc3)CC2)C(C)(C)C)cc1 [6-b^neg]	–	–	–	–	–	–	inactive	-0.02087	0.09325	0.1465	-0.2041	–
Cc1ncsc1-c1ccc(CNC(=O)[C@@H]2C[C@@H](O)CN2C(=O)[C@@H](NC(=O)CCOCCOCCNC(=O)c2cc(Nc3cc(C4CC4)[nH]n3)nc(Nc3ccc(CC#N)cc3)n2)C(C)(C)C)cc1 [5-a]	~8.76	0.162 ± 0.002	–	–	~16.9	1.22 ± 0.665	–	–	–	–	–	AAK1 intact (IC50±sd)/μM (full-length AAK1; NanoBRET, intact cells, mean of duplicates, ^a values estimated by extrapolation): single-digit micromolar; cell permeability / cell penetration (full-length AAK1; as shown by the NanoBRET data (intact vs permeabilized cells)): poor cell permeability; log2FC (compound/DMSO) ([1]; protein NUDT4, 1 µM, set1.2): -0.04256; log2FC (compound/DMSO) ([1]; protein PIGBOS1, 1 µM, set1.2): -0.1976; log2FC (compound/DMSO) ([1]; protein TRAV8-2, 1 µM, set1.2): 0.04739; log2FC (compound/DMSO) [1, 7]: 0.03953; AURKA intact (IC50±sd)/μM (AURKA; intact cells): outside the assay window
Cc1ncsc1-c1ccc(CNC(=O)[C@@H]2C[C@H](O)CN2C(=O)[C@@H](NC(=O)CCOCCOCCOCCN2CCN(c3cc(Nc4cc(C5CC5)[nH]n4)nc(Nc4ccc(CC#N)cc4)n3)CC2)C(C)(C)C)cc1 [4-a^neg]	–	–	–	–	–	–	inactive	0.1377	-0.04256	0.1443	-0.0883	–
CC(=O)N[C@H](C(=O)N1C[C@H](O)C[C@H]1C(=O)NCc1ccc(-c2scnc2C)cc1OCCOCCOCCOCCOCCC(=O)N1CCN(c2ccc(Nc3ncc(Cl)c(Nc4ccccc4C(N)=O)n3)cc2)CC1)C(C)(C)C [6-e]	0.53 ± 0.246	0.123 ± 0.02	–	~2.2	0.861 ± 0.251	1.4 ± 0.174	–	–	–	–	–	effect on cell viability (cytotoxicity) (Jurkat cells): no cytotoxicity was observed
CC(C)(C)OC(=O)NCCCOCCOCCOCCCNC(=O)c1cc(Nc2cc(C3CC3)[nH]n2)nc(Nc2ccc(CC#N)cc2)n1 [5-L]	0.308 ± 0.032	0.07 ± 0.012	5.7 ± 1.5	~19.7	~7.05	–	–	–	–	–	–	–

Source: article PMC11851430, “Workflow for E3 Ligase Ligand Validation for PROTAC Development” (ACS Chemical Biology, 2025)
